From patent US20100233241A1, “OPHTHALMIC DRUG DELIVERY SYSTEM AND APPLICATIONS” (VISTA SCIENTIFIC LLC, priority 2009, published 2010)

Columns and labels:
[1] = timolol drug release from ocular device in Unisol 4 buffer, UV spectroscopy; type: physicochemical; details: Example 11 polymer matrix with dissolved timolol free base; release study 90 days, 37° C., Unisol 4 buffer (FIG. 16)
Protocol: The following details the method utilized to monitor timolol drug release from an ocular device of this example. Solutions of timolol maleate, in a concentration range of 5 ppm to 1,000 ppm, were prepared in Unisol® 4 buffer (Unisol® 4 is a preservative-free pH-balanced saline solution manufactured by Alcon Laboratories). A UV scanning spectrophotometer was utilized to generate a calibration curve of peak absorbance (λmax=294 nm) versus concentration, in gm/100 ml, of timolol maleate. A calibration curve for timolol free base was then generated. A device weighing between 100 and 150 mg was placed in a 4 ml vial. To the vial was added 2.0 ml of Unisol® 4 buffer. After 24 hours at 37° C., the sample was removed and placed in another 4 ml vial and covered with 2.0 ml of fresh Unisol® 4 buffer. The 24-hour release vial was capped, labeled and held for analysis. This procedure was repeated four more times to obtain 1-, 2-, 3-, 4- and 5-day release data. The sampling interval was then expanded to every 3 to 5 days and so on. The release study was carried out for a total of 90 days. The drug release samples were analyzed by UV spectroscopy and absorbance readings converted to weight of drug via the calibration curve. A plot of cumulative weight, in micrograms, of drug released versus time was generated.

[2] = ciprofloxacin drug release from ocular device in Purilens Plus buffer, UV spectroscopy; type: physicochemical
Protocol: The following details the method utilized to monitor ciprofloxacin drug release from an ocular device of this example. Solutions of ciprofloxacin, in a concentration range of 5 ppm to 1,000 ppm, were prepared in Purilens Plus buffer (Purilens Plus is a preservative-free pH-balanced saline solution manufactured by The Lifestyle Company). A UV scanning spectrophotometer was utilized to generate a calibration curve of peak absorbance (λmax=272 nm) versus concentration, in gm/100 ml, of ciprofloxacin.
A device from this example weighing between 100 and 150 mg was placed in a 4 ml vial. To the vial was added 3.0 ml of Purilens Plus buffer. After 24 hours at 37° C., the sample was removed and placed in another 4 ml vial and covered with 3.0 ml of fresh Purilens Plus buffer. The 24-hour release vial was capped, labeled and held for analysis. This procedure was repeated four more times to obtain 1-, 2-, 3-, 4- and 5-day release data. The sampling interval was then expanded to every 3 to 5 days and so on. The release study was carried out for a total of 60 days.
The drug release samples were analyzed by UV spectroscopy and absorbance readings converted to weight of drug via the calibration curve.

CC(C)(C)NC[C@H](O)COc1nsnc1N1CCOCC1 [timolol]
timolol release from device [1]: releases timolol in a controlled manner over several months

O=C(O)c1cn(C2CC2)c2cc(N3CCNCC3)c(F)cc2c1=O [ciprofloxacin]
amount of ciprofloxacin released ([2]; 60 days release study, 37° C., Purilens Plus buffer, Example 12 hydrogel device, initial loading about 8.67 mg): 4.74 mg
ciprofloxacin released, share of initial loading ([2]; in the 60 days, 4.74 mg of about 8.67 mg loading): 55%
